Test results published in the supplement of paper PMC10307832.

Assays:
Experiment in all cases: relative viability (nuclei count vs DMSO), 5 days (fraction); higher = more cells survive
Carboplatin + Crizotinib = compound: C1CC(C1)(C(=O)O)C(=O)O.[NH2-].[NH2-].[Pt+2] [Carboplatin] + C[C@@H](Oc1cc(-c2cnn(C3CCNCC3)c2)cnc1N)c1c(Cl)ccc(F)c1Cl [Crizotinib] (partner 1 µM)
Outline: (§1)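 Lung cancer cell lines in 1536-well plates got either a single drug or a fixed anchor-drug dose together with five library-drug doses (not always all listed) in √10 steps, by pin tool, on the day after seeding. Nuclei were counted after 5 days, and relative viability is the treated-to-vehicle ratio of nuclei counts. Values are medians of duplicate plates.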

Carboplatin + Linsitinib = compound: C1CC(C1)(C(=O)O)C(=O)O.[NH2-].[NH2-].[Pt+2] [Carboplatin] + C[C@]1(O)C[C@@H](c2nc(-c3ccc4ccc(-c5ccccc5)nc4c3)c3c(N)nccn32)C1 [Linsitinib] (partner 1 µM)
Outline: as §1

Carboplatin + Alpelisib = compound: C1CC(C1)(C(=O)O)C(=O)O.[NH2-].[NH2-].[Pt+2] [Carboplatin] + Cc1nc(NC(=O)N2CCC[C@H]2C(N)=O)sc1-c1ccnc(C(C)(C)C(F)(F)F)c1 [Alpelisib] (partner 2 µM)
Outline: as §1

Carboplatin + Olaparib = compound: C1CC(C1)(C(=O)O)C(=O)O.[NH2-].[NH2-].[Pt+2] [Carboplatin] + O=C(c1cc(Cc2n[nH]c(=O)c3ccccc23)ccc1F)N1CCN(C(=O)C2CC2)CC1 [Olaparib] (partner 8 µM)
Outline: as §1

Cell Line	relative viability (Carboplatin + Crizotinib; first compound 0.08 µM)	relative viability (Carboplatin + Crizotinib; first compound 0.253 µM)	relative viability (Carboplatin + Crizotinib; first compound 0.8 µM)	relative viability (Carboplatin + Crizotinib; first compound 2.53 µM)	relative viability (Carboplatin + Crizotinib; first compound 8 µM)	relative viability (Carboplatin + Linsitinib; first compound 0.08 µM)	relative viability (Carboplatin + Linsitinib; first compound 0.253 µM)	relative viability (Carboplatin + Linsitinib; first compound 0.8 µM)	relative viability (Carboplatin + Linsitinib; first compound 2.53 µM)	relative viability (Carboplatin + Linsitinib; first compound 8 µM)	relative viability (Carboplatin + Alpelisib; first compound 0.08 µM)	relative viability (Carboplatin + Alpelisib; first compound 0.253 µM)	relative viability (Carboplatin + Alpelisib; first compound 0.8 µM)	relative viability (Carboplatin + Alpelisib; first compound 2.53 µM)	relative viability (Carboplatin + Alpelisib; first compound 8 µM)	relative viability (Carboplatin + Olaparib; first compound 0.08 µM)	relative viability (Carboplatin + Olaparib; first compound 0.253 µM)	relative viability (Carboplatin + Olaparib; first compound 0.8 µM)	relative viability (Carboplatin + Olaparib; first compound 2.53 µM)	relative viability (Carboplatin + Olaparib; first compound 8 µM)
LU99A	0.62	0.665	0.556	0.464	0.422	0.621	0.583	0.508	0.464	0.417	0.623	0.584	0.493	0.522	0.365	0.296	0.272	0.253	0.236	0.214
LXF-289	0.821	0.839	0.708	0.796	0.764	0.992	1.02	0.912	0.939	0.926	1.05	1.12	1.01	0.975	0.995	1.05	1.1	1.08	1.05	0.996
NCI-H23	0.638	0.542	0.516	0.488	0.39	0.536	0.716	0.542	0.563	0.492	0.659	0.75	0.623	0.681	0.635	0.4	0.31	0.281	0.28	0.24
NCI-H322M	1.07	0.964	0.963	0.926	0.854	0.915	0.956	0.785	0.812	0.799	0.74	0.574	0.605	0.739	0.701	0.761	0.818	0.779	0.686	0.65
NCI-H358	0.596	0.744	0.629	0.588	0.525	0.826	0.806	0.796	0.772	0.751	1.14	0.881	0.845	0.824	0.671	0.713	0.636	0.593	0.498	0.43
NCI-H441	0.72	0.925	0.618	0.791	0.655	0.608	0.506	0.662	0.544	0.573	0.896	0.694	0.643	0.651	0.692	0.465	0.497	0.499	0.486	0.259
NCI-H460	0.799	0.809	0.76	0.614	0.16	0.907	0.803	0.739	0.445	0.184	0.462	0.424	0.325	0.322	0.0696	0.444	0.47	0.253	0.188	0.187
NCI-H520	0.943	0.914	0.709	0.576	0.601	0.997	1.09	1.02	0.943	0.784	0.894	1.06	0.897	0.908	0.737	0.408	0.253	0.328	0.313	0.287
NCI-H596	0.895	0.983	0.834	0.783	0.735	1.15	1.09	0.904	0.809	0.771	0.475	0.574	0.458	0.423	0.445	0.6	0.617	0.623	0.601	0.585
NCI-H647	1.11	1.04	1.01	1.11	0.632	1.41	1.24	1.11	0.932	0.503	1.23	1.14	1.23	1.12	0.771	0.631	0.543	0.53	0.431	0.222
NCI-H650	0.789	0.697	0.569	0.506	0.567	1.15	0.859	0.982	0.848	0.503	1.13	1	1.06	0.856	0.757	0.419	0.388	0.37	0.365	0.285
NCI-H661	1	1.05	0.98		0.843	0.555	0.705	0.529	0.44	0.541	0.567	0.66	0.703	0.595	0.648	0.73	0.794	0.675	0.737	0.729
NCI-H727	0.988	0.953	0.704	0.614	0.317	0.456	0.298	0.314	0.347	0.277	0.76	0.483	0.509	0.514	0.363	0.75	0.586	0.862	0.646	0.667
NCI-H838	0.838	0.918	0.784	0.861	0.797	1.03	1.09	0.961	0.958	1	1.09	1.07	0.953	0.995	0.979	0.773	0.746	0.757	0.683	0.575
NCI-H1299	0.932	0.91	0.88	0.885	0.835	1.02	0.993	0.953	0.965	0.956	1.06	1.11	0.997	1.02	0.909	0.967	0.969	0.96	0.947	0.826
NCI-H1355	1.16	1.18	1.02	1.02	1.02	0.971	0.805	0.838	0.869	0.727	0.885	0.866	0.843	0.687	0.721	0.808	0.734	0.677	0.694	0.595

Cell Line	relative viability (Carboplatin + Crizotinib; first compound 0.08 µM)	relative viability (Carboplatin + Crizotinib; first compound 0.253 µM)	relative viability (Carboplatin + Crizotinib; first compound 0.8 µM)	relative viability (Carboplatin + Crizotinib; first compound 2.53 µM)	relative viability (Carboplatin + Crizotinib; first compound 8 µM)	relative viability (Carboplatin + Linsitinib; first compound 0.08 µM)	relative viability (Carboplatin + Linsitinib; first compound 0.253 µM)	relative viability (Carboplatin + Linsitinib; first compound 0.8 µM)	relative viability (Carboplatin + Linsitinib; first compound 2.53 µM)	relative viability (Carboplatin + Linsitinib; first compound 8 µM)	relative viability (Carboplatin + Alpelisib; first compound 0.08 µM)	relative viability (Carboplatin + Alpelisib; first compound 0.253 µM)	relative viability (Carboplatin + Alpelisib; first compound 0.8 µM)	relative viability (Carboplatin + Alpelisib; first compound 2.53 µM)	relative viability (Carboplatin + Alpelisib; first compound 8 µM)	relative viability (Carboplatin + Olaparib; first compound 0.08 µM)	relative viability (Carboplatin + Olaparib; first compound 0.253 µM)	relative viability (Carboplatin + Olaparib; first compound 0.8 µM)	relative viability (Carboplatin + Olaparib; first compound 2.53 µM)	relative viability (Carboplatin + Olaparib; first compound 8 µM)
NCI-H1437	0.909	0.96	0.892	0.936	0.805	1.06	1.02	0.95	0.859	0.876	0.988	0.989	0.929	0.947	0.828	0.646	0.675	0.578	0.623	0.594
NCI-H1651	0.931	0.929	0.738	0.748	0.712	0.918	1.06	0.82	0.9	0.509	0.846	1.1	0.907	0.876	0.573	0.191	0.199	0.185	0.166	0.161
NCI-H1666	0.997	1.07	0.838	0.917	0.568	0.823	0.879	0.747	0.794	0.458	1.16	0.909	0.855	0.773	0.543	0.741	0.704	0.707	0.672	0.657
NCI-H1703	0.835	0.574	0.65	0.971	0.636	1.84	1.04	0.829	1.32	0.813	0.373	0.335	0.417	0.407	0.421	0.646	0.329	0.453	0.608	0.325
NCI-H1734	0.682	0.673	0.637	0.716	0.614	0.823	0.904	0.909	0.876	0.851	0.647	0.757	0.632	0.67	0.589	0.598	0.623	0.522	0.574	0.423
NCI-H1755	0.868	0.935	0.853	0.848	0.743	1.12	0.947	1.03	1.02	0.952	0.928	0.894	0.97	0.932	0.894	0.861	0.895	0.88	0.854	0.784
NCI-H1792	1.07	1.04	0.945	0.888	0.866	0.61	0.518	0.528	0.393	0.503	0.802	0.634	0.515	0.444	0.6	0.72	0.548	0.412	0.289	0.265
NCI-H1915	0.873	0.929	0.875	0.756	0.521	1.07	1.11	1.04	1.01	0.723	1.05	1.06	0.966	0.893	0.675	0.253	0.257	0.225	0.22	0.21
NCI-H1944	1.05	1.17	1	0.916	0.788	1.24	1.09	1.16	1.29	0.898	0.98	0.857	0.813	0.701	0.643	0.388	0.469	0.369	0.367	0.366
NCI-H1975	0.955	0.943	0.919	0.969	0.911	0.894	0.986	0.999	1.02	0.903	0.669	0.655	0.728	0.598	0.666	0.961	0.79	0.735	0.747	0.747
NCI-H1993	0.958	0.909	0.892	0.775	0.723	0.773	0.798	0.779	0.817	0.701	0.663	0.745	0.643	0.62	0.678	0.854	1.22	0.993	0.923	0.706
NCI-H2009	1.06	1	0.987	0.965	0.611	1.21	1.14	1.09	1.09	0.807	1.3	1.11	1.15	0.973	0.695	0.65	0.653	0.658	0.594	0.437
NCI-H2023	0.633	0.604	0.566	0.419	0.144	0.745	0.644	0.73	0.576	0.205	0.65	0.546	0.601	0.397	0.193	0.473	0.445	0.415	0.231	0.135
NCI-H2085	1.01	0.932	0.778	0.754	0.676	0.943	0.967	0.845	0.858	0.764	0.998	1.05	0.907	0.882	0.756	0.817	0.844	0.761	0.786	0.687
NCI-H2087	0.817	0.907	0.8	0.845	0.769	1.09	0.857	0.782	0.871	0.585	1.18	1.04	0.992	0.848	0.647	0.69	0.674	0.578	0.553	0.328
NCI-H2126	1.04	1.06	1.02	0.962	1	0.724	0.741	0.713	0.687	0.667	0.777	0.763	0.795	0.758	0.713	0.936	0.959	0.903	0.915	0.763
